Experimental data as given in US4473646A, “Stereospecific asparaginases” (Development Finance Corp. of New Zealand, priority 1980, dated 1984).

Experiments:
Format in all cases: biochemical
[1] = tested on: D-asparaginase THERMUS T-351 (ATCC No. 31,674); assay: Asparaginase properties: Km and inhibitors; settings: for Inhibitors: loss of activity: inhibitor concentration not stated
[2] = tested on: L-asparaginase THERMUS T-351 (ATCC No. 31,674); assay: Asparaginase properties: inhibitors; settings: inhibitor concentration not stated
[3] = target: T1, L-asparaginase E. COLI (B) (for comparison) (Escherichia coli, UniProt P00805); assay: Asparaginase properties: Km and inhibitors (for comparison); settings: inhibitor concentration not stated
T1 sequence (P00805 23-348): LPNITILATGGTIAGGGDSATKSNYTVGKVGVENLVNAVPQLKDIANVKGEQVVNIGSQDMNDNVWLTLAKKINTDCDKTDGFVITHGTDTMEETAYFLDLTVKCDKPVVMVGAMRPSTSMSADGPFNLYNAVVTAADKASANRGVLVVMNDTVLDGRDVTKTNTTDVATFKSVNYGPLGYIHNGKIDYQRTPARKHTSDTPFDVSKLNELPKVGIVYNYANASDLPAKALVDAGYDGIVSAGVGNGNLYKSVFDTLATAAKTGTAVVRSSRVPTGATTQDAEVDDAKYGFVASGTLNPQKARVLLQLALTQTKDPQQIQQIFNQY

**Q.** What does the source list for `CC(N)=O` [Acetamide]?
**A.** Inhibitors: loss of activity [1]: 100%; Inhibitors: loss of activity [2]: No loss of activity; Inhibitors: loss of activity [3]: No loss of activity

**Q.** Which Km ([1]; substrate not given, enzyme specific only for D-asparagine) does the source give for `NC(=O)C[C@@H](N)C(=O)O` [D-asparagine] here?
**A.** 20 mM

**Q.** `O=C(O)c1cc[c]([Hg][Cl])cc1` [pCMB] was tested. Which “Inhibitors: loss of activity” value [1] did it give?
**A.** No loss of activity

**Q.** What about the “Inhibitors: loss of activity” value [2] of the same compound?
**A.** 100%

**Q.** What about the “Inhibitors: loss of activity” value [3] of the same compound?
**A.** No loss of activity
